The structures appear in SMILES notation.

For 1 compound, EC50 results are on record in PMC8602723, “Comparative assessment of antimicrobial, antiradical and cytotoxic activities of cannabidiol and its propyl analogue cannabidivarin” (Scientific Reports, 2021).

Test [1] is described as follows: ABTS assay (radical scavenging). The settings on record: 50% reduction of initial ABTS radical absorbance, 6 min; 95% confidence limits in brackets. The method, then: An ABTS assay was performed following the procedure described by Lavorgna et al. 2019[66]. The cationic ABTS radical (ABTS^+) was generated by oxidizing ABTS (7 mM) with potassium persulfate (140 mM K2S2O8), and the mixture was incubated for 12–16 h in the dark. The ABTS^+ working solution was diluted to an absorbance of […] OD at 734 nm. […] Distilled water was used for the blank, Trolox was used for the standard control, and methanol was used for the solvent control.
The results are expressed as the median effective concentration (EC50). Furthermore, Trolox equivalent antioxidant capacity (TEAC) values were calculated following the procedure used by Shimamura end colleagues[68]:5 TEAC=EC50Trolox/EC50sample
(§1) All results from five independent experiments are expressed as the IC50 or EC50 as determined by analysis with Prism 5 software (GraphPad Inc., San Diego, CA, USA) and nonlinear regression (log agonist vs. normalized response-variable slope) with a 95% confidence range. Lowest observed adverse effect concentrations (LOAECs) were calculated by one-way ANOVA and Dunnett’s comparison test. Differences compared to the controls were considered significant as follows: *p < 0.05, **p < 0.001 and ***p < 0.0001.

The nature of test [2]: DPPH assay (radical scavenging). The settings on record: 50% reduction of initial DPPH radical absorbance, 30 min; 95% confidence limits in brackets. The procedure:
DPPH assay was performed following the protocol described by Brand-Williams et al.[69]. DPPH^⋅ was dissolved in methanol, generating a purple solution (101.43 µM). […] Furthermore, 940 μL of methanol and 60 μL of distilled water were used for the blank. Trolox was used as the standard control, and methanol was used as the solvent control.
The results were expressed as the median effective concentration of sample able to reduce the initial absorbance of the DPPH radical (EC50). Furthermore, TEAC values were calculated in line with Shimamura end colleagues[68] as previously reported.
as §1

For the compound `Cc1c(C)c2c(c(C)c1O)CCC(C)(C(=O)O)O2` (centres unmarked) [TROLOX, 6-Hydroxy-2,5,7,8-tetramethylchromane 2-carboxylic acid, reference compound], the figures for the EC50 in test [1] and in test [2] were 111 µM and 327 µM, respectively.
